Experimental data published in ChEMBL document CHEMBL1144278, “A new bactericidal lead structure for the protection of materials” (Bioorg Med Chem Lett, 2005).
Values after ≈ are worked out from the molar mass of the structure shown.

Experiments:
Pseudomonas aeruginosa [1] = test: Minimum inhibitory concentration against Pseudomonas aeruginosa NCIB 6749 was determined in chem. def. medium; format: functional
Pseudomonas aeruginosa [2] = test: Minimum inhibitory concentration against Pseudomonas aeruginosa NCIB 6749 was determined in complex medium; format: functional
[3] = Half life period was determined; format: ADME; details: pH 9, 50 °C
Bacteria = test: Minimum inhibitory concentration against Corynebacterium was determined in agar medium; format: functional
Bacillus subtilis = test: Minimum inhibitory concentration against Bacillus subtilis; format: functional
Pseudomonas aeruginosa [4] = test: Minimum inhibitory concentration against Pseudomonas aeruginosa ATCC 15442 was determined in agar medium; format: functional
Pseudomonas aeruginosa [5] = test: Minimum inhibitory concentration against Pseudomonas aeruginosa NCIB 12201 was determined in agar medium; format: functional
Alcaligenes faecalis = test: Minimum inhibitory concentration against Alcaligenes faecalis was determined in agar medium; format: functional
Pseudomonas aeruginosa [6] = test: Minimum inhibitory concentration against Pseudomonas aeruginosa NCIB 6749 was determined in agar medium; format: functional
[7] = Lethal dose in rat; format: toxicity; details: in vivo
[8] = Half life periof was determined; format: ADME

Row | SMILES | MIC (Pseudomonas aeruginosa [1]) [µg/mL] | MIC (Pseudomonas aeruginosa [2]) [µg/mL] | further results
1 | C=C(C)OC(=O)N(C(=O)OC(=C)C)c1onc2c1CCC2 | 10 (≈ 34.2 µM) | 10 (≈ 34.2 µM) | –
2 | O=C(Nc1onc2c1CCC2)C(F)(F)F | – | – | half-life [3]: 105 h
3 | CCCC(=O)N(C(=O)CCC)c1onc2c1CCC2 | – | – | half-life [3]: 6 h
4 | Nc1onc2c1CCC2 | – | – | MIC (Bacteria): < 1 µg/mL; MIC (Bacillus subtilis): 5 µg/mL (≈ 40.3 µM); MIC (Pseudomonas aeruginosa [4]): 5 µg/mL (≈ 40.3 µM); MIC (Pseudomonas aeruginosa [5]): 7.5 µg/mL (≈ 60.4 µM); MIC (Alcaligenes faecalis): < 1 µg/mL; MIC (Pseudomonas aeruginosa [6]): < 1 µg/mL; LD50 [7]: < 300 mg/kg; half-life [8]: 97 h

Continued, in another order:

Row | MIC (Pseudomonas aeruginosa [1]) [µg/mL] | MIC (Pseudomonas aeruginosa [2]) [µg/mL] | SMILES | further results
5 | 10 (≈ 21.1 µM) | 5 (≈ 10.5 µM) | O=C(OCC(Cl)(Cl)Cl)N(C(=O)OCC(Cl)(Cl)Cl)c1onc2c1CCC2 | –
6 | 10 (≈ 30.8 µM) | 10 (≈ 30.8 µM) | CCCCOC(=O)N(C(=O)OCCCC)c1onc2c1CCC2 | –
7 | 10 (≈ 23.5 µM) | 5 (≈ 11.7 µM) | O=C(OCCBr)N(C(=O)OCCBr)c1onc2c1CCC2 | –
8 | 10 (≈ 30.8 µM) | 5 (≈ 15.4 µM) | CC(C)COC(=O)N(C(=O)OCC(C)C)c1onc2c1CCC2 | –
9 | 10 (≈ 29.7 µM) | 5 (≈ 14.8 µM) | O=C(OCCCl)N(C(=O)OCCCl)c1onc2c1CCC2 | –
